What all share (test): KINOMEscan Assay (DiscoverX)
Assay type in all cases: binding

The target of one experiment is T1, TAOK3 (Homo sapiens, UniProt Q9H2K8).
T1 construct: purchased DiscoverX
T1 sequence (Q9H2K8 1-898): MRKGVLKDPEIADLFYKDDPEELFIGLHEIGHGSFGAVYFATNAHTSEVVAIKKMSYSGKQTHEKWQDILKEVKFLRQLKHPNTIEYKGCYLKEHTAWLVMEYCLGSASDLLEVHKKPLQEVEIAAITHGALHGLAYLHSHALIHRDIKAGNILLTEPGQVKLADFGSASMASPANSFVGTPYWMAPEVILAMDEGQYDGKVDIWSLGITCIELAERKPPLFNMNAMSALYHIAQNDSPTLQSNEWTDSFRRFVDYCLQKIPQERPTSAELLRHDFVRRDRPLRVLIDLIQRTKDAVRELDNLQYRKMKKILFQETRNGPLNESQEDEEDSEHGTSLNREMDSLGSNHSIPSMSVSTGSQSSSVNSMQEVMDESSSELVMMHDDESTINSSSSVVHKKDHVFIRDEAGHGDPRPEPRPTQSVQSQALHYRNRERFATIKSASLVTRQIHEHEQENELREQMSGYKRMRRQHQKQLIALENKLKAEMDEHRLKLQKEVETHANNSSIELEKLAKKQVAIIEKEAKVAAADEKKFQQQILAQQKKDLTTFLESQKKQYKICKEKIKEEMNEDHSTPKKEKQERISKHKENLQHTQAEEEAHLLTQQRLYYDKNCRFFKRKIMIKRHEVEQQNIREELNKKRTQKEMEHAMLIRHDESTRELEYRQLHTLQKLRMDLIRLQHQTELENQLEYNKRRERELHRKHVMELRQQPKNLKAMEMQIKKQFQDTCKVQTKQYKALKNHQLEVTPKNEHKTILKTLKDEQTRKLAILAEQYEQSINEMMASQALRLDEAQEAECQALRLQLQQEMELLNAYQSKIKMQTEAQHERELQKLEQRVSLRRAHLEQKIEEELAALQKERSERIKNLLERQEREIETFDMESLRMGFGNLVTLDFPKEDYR
The note with it: read-out: % DMSO Ctrl.

For another experiment, the target named is T2, PIK3C2G (Homo sapiens, UniProt O75747).
T2 construct: purchased DiscoverX
T2 sequence (O75747 1-1486): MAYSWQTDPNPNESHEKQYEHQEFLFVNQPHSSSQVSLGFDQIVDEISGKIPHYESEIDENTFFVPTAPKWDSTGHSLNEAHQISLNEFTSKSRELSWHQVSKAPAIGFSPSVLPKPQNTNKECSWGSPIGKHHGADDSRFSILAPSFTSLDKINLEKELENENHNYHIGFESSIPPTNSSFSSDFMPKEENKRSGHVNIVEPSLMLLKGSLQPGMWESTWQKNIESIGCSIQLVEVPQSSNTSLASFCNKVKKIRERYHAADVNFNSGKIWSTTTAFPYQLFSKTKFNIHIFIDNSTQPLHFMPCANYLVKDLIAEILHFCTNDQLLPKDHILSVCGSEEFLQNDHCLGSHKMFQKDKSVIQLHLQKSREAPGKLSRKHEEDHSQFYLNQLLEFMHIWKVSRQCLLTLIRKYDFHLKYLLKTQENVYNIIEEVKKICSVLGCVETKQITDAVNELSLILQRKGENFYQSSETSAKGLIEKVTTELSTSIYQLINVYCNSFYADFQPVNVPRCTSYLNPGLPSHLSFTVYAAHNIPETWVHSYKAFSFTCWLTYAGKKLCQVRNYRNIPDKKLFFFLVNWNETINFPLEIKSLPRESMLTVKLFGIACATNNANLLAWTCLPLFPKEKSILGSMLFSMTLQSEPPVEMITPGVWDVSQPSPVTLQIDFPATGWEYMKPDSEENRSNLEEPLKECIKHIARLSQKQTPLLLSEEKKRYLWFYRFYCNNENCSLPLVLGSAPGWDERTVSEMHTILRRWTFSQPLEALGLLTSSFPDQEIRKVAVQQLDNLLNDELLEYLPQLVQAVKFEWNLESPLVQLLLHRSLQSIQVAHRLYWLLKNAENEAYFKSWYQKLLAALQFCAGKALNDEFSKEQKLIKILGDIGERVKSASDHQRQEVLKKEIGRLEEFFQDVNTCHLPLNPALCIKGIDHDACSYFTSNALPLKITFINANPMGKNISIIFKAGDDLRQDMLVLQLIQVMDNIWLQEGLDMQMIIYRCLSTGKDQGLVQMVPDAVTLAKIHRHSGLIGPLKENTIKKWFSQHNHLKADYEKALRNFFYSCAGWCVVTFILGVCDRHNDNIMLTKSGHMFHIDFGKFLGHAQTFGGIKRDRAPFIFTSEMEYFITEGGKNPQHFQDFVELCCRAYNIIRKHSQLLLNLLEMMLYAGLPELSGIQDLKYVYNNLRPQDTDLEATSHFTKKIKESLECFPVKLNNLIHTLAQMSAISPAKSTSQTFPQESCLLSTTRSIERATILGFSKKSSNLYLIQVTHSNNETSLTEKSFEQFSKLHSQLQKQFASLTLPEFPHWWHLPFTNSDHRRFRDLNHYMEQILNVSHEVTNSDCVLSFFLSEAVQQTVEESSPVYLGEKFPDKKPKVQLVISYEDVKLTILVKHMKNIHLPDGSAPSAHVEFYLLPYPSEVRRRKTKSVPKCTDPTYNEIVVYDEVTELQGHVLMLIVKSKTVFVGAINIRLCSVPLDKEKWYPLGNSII
Conditions: read-out: % DMSO Ctrl.

A further experiment deals with FLT3(ITD,D835V). The note with it: FLT3(ITD,D835V) mutant; 10 μM.
The target in another experiment is T3, KIT(V559D) (Homo sapiens, UniProt P10721, V559D).
T3 construct: purchased DiscoverX
Conditions: read-out: % DMSO Ctrl.

For another experiment, the target named is T4, ROCK1 (Homo sapiens, UniProt Q13464).
T4 construct: purchased DiscoverX
Conditions: read-out: % DMSO Ctrl.

The next experiment concerns the target T5, KIT (Homo sapiens, UniProt P10721).
T5 construct: purchased DiscoverX
The note with it: read-out: % DMSO Ctrl.

For a further experiment, the target named is T6, PIM2 (Homo sapiens, UniProt Q9P1W9).
T6 construct: purchased DiscoverX
The note with it: read-out: % DMSO Ctrl.

The structures appear in SMILES notation. Read-outs that look alike come from different tables or passages of the source. Marks after values point to notes of the source that are not given here.

T6 sequence (Q9P1W9 whole entry): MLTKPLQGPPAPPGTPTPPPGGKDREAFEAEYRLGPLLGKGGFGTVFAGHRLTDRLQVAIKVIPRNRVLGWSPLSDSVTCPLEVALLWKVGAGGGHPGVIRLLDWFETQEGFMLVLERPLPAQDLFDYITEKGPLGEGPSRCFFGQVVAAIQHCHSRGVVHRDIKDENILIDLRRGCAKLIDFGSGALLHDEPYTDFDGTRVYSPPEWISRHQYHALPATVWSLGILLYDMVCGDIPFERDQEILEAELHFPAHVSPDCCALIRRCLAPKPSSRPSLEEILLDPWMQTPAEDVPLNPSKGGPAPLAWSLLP
T5 sequence (P10721 26-976): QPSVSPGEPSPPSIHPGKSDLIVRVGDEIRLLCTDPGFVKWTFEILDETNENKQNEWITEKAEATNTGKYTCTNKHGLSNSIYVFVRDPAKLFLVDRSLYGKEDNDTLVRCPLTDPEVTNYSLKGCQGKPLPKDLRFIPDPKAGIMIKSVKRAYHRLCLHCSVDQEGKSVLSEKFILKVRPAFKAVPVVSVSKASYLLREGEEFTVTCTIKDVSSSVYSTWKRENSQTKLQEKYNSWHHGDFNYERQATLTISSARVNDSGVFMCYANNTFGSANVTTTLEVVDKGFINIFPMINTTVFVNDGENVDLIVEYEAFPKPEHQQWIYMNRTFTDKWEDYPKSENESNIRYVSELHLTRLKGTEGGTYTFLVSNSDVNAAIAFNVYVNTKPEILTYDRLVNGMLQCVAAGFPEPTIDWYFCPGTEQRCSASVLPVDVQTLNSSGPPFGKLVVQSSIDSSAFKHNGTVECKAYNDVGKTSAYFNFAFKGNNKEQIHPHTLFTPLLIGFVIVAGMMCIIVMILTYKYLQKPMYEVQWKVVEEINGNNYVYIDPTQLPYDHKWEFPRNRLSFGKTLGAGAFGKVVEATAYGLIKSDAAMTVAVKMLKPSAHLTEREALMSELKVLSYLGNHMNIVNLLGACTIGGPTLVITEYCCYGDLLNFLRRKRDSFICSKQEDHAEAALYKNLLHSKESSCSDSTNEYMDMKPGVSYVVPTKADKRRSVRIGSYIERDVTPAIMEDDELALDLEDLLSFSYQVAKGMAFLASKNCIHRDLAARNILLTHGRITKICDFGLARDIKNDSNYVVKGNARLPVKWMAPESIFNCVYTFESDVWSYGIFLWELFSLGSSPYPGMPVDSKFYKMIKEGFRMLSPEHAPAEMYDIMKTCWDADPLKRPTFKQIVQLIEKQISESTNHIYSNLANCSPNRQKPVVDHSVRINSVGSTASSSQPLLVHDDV
T4 sequence (Q13464 whole entry): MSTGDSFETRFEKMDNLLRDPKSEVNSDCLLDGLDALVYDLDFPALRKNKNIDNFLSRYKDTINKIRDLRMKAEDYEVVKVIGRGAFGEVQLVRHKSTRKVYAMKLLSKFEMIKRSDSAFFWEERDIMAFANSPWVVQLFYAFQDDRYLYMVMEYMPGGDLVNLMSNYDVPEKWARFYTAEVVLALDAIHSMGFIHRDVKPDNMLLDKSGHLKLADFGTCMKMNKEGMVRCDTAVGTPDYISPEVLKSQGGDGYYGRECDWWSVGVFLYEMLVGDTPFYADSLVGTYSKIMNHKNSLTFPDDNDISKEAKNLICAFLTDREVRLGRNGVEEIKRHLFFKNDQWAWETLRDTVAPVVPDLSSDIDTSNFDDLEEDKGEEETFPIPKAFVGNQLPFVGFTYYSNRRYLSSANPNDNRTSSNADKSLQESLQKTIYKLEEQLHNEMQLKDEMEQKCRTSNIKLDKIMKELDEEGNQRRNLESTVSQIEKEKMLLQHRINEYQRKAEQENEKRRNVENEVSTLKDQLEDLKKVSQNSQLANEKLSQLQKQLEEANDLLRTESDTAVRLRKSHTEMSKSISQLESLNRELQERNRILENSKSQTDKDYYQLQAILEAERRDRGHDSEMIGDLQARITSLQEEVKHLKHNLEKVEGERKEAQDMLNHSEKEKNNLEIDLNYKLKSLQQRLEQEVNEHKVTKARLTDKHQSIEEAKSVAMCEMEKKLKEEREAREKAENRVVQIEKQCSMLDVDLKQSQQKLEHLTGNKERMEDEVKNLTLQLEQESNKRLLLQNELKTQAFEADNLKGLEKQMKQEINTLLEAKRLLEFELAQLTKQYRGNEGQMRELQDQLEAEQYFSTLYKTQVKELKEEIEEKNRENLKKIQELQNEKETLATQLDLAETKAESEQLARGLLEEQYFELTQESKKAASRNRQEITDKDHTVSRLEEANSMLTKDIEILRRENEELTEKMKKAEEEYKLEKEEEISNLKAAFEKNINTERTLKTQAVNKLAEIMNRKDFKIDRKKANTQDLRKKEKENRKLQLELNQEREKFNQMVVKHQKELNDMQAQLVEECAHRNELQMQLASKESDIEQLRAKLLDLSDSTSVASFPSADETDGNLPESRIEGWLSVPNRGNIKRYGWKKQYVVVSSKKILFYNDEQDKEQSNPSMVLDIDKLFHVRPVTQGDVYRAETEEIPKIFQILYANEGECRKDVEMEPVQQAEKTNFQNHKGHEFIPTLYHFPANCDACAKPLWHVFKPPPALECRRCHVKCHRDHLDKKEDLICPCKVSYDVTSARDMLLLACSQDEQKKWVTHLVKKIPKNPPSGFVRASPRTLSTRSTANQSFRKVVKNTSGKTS
T3 sequence (P10721 26-976 V559D): as the sequence (P10721 26-976) above, with V534D counted along it

For the compound `COc1ccc2c(c1)[nH]c1c(C)nc(CO)cc12` [Compound 2-8, (1-Methyl-7-methoxy-9H-pyrido[3,4-b]indol-3-yl)methanol], the remaining binding at 10 µM at TAOK3 (TAOK3, 10 μM) turned out to be 70%; on PIK3C2G (PIK3C2G, 10 μM), 36%; on KIT(V559D) (KIT(V559D) mutant, 10 μM) it was 82%; at ROCK1 (ROCK1, 10 μM), 33%; at KIT (KIT, 10 μM), 98%. Also, in the experiment on FLT3(ITD,D835V), the “% DMSO Ctrl” value was determined as 37 % DMSO Ctrl.

Take `COc1ccc2c3ccnc(C)c3n(CCCc3noc(N)n3)c2c1` [Compound 20-13, 3-(3-(7-Methoxy-1-methyl-β-carbolin-9-yl)propyl)-5-amino-1,2,4-oxadiazole]: the remaining binding at 10 µM turned out to be 77% at TAOK3; 1.2% at PIK3C2G; 38% on PIM2; 100% at KIT(V559D); 24% on ROCK1; 100% at KIT. The “% DMSO Ctrl” value with FLT3(ITD,D835V) is listed as 11 ^c % DMSO Ctrl.

In the case of `C#CCn1c2cc(OC)ccc2c2ccnc(C)c21` [Compound 20-23a, 3-(7-Methoxy-1-methyl-β-carbolin-9-yl)-propan-1-yne], the remaining binding at 10 µM on TAOK3 stood at 93%; at PIK3C2G, 38%; on PIM2 (PIM2, 10 μM), 19%; on KIT(V559D), 90%; on ROCK1 (ROCK1, 10 μM) it was 9.2%; on KIT, 83%. In addition, the “% DMSO Ctrl” value in the experiment on FLT3(ITD,D835V) is listed as 11 ^c % DMSO Ctrl.

Turning to `COc1ccc2c(c1)[nH]c1c(C)nccc12` [Harmine, reference compound], the remaining binding at 10 µM is 39% on PIM2 and 26% on ROCK1.

Values taken from patent publication US12421232B2, “Kinase inhibitor compounds and compositions and methods of use” (ICAHN SCHOOL OF MEDICINE AT MOUNT SINAI, priority 2018, dated 2025).
